The test system of the test is Plasmodium berghei. Briefly: Luciferase/luciferin-expressing antifolate-resistant parasites were used to infect a culture of HepG2 cells that were pre-incubated with compounds. Infected hepatocytes emit light due to the luciferase reaction. Assay results are presented as the percent inhibition of light emission compared to control. […]. The test is classed as functional. The settings on record: sporozoite; for IC90: read-out: LUCIFERASE INFECTION ASSAY - IC90.

A value given as a limit tells only on which side of the number the result lay.

As usually defined, the IC50 is the midpoint of a concentration-inhibition curve. The term IC90 denotes the point of the concentration-response curve where the effect stands at 90%. In the case of `O=C(Nc1cccc(Cl)c1)Nc1csc([N+](=O)[O-])c1`, the IC90 stood at 9.45 µM. Further, the IC50 (HEPG2TOX_HILL_SLOPE 11, HEPG2TOX_R_SQUARED 0.423, PBLUC_HILL_SLOPE 4.17, PBLUC_R_SQUARED 0.367, read-out: LUCIFERASE INFECTION ASSAY - IC50) turned out to be 5.58 µM.
On to `Cc1[nH]c2ccccc2c1C1=NN=C(Nc2ccc(F)cc2)SC1`, for which the IC90 is more than 10 µM. Also, for the setting “HEPG2TOX_HILL_SLOPE 10.5, HEPG2TOX_R_SQUARED 0.592, PBLUC_HILL_SLOPE 2.25, PBLUC_R_SQUARED 0.706, read-out: LUCIFERASE INFECTION ASSAY - IC50”, the IC50 worked out at 5.54 µM.
On to `O=C(Cn1ncc(Br)c(Br)c1=O)C12CC3CC(CC(C3)C1)C2`, for which the concentration for an effect of 90% (IC90) was more than 10 µM. The IC50 (HEPG2TOX_HILL_SLOPE 11, HEPG2TOX_R_SQUARED 0.947, PBLUC_HILL_SLOPE 1.04, PBLUC_R_SQUARED 0.291, read-out: LUCIFERASE INFECTION ASSAY - IC50) stood at 2.75 µM.
In the case of `O=C(Nc1cc(C(F)(F)F)cc(C(F)(F)F)c1)c1csc([N+](=O)[O-])c1`, the concentration for an effect of 90% (IC90) came to 7.1 µM. In addition, the IC50 (HEPG2TOX_HILL_SLOPE 11, HEPG2TOX_R_SQUARED 0.957, PBLUC_HILL_SLOPE 1.57, PBLUC_R_SQUARED 0.511, read-out: LUCIFERASE INFECTION ASSAY - IC50) is 1.75 µM.
With `O=C(/C=C/c1ccc(-c2ccccc2Cl)s1)N1CCN(c2ncccn2)CC1`, the IC90 is more than 10 µM. Also, the half-maximal inhibitory concentration (IC50) (HEPG2TOX_HILL_SLOPE 11.1, HEPG2TOX_R_SQUARED 0.736, PBLUC_HILL_SLOPE 11.3, PBLUC_R_SQUARED 0.239, read-out: LUCIFERASE INFECTION ASSAY - IC50) amounted to 9.23 µM.
Take `C/C(Cn1nnc(-c2ccc(C(F)(F)F)cc2)n1)=N\NC(N)=S`: the IC90 is 3.45 µM. The 50% inhibitory concentration (IC50) (HEPG2TOX_HILL_SLOPE 10.9, HEPG2TOX_R_SQUARED 0.527, PBLUC_HILL_SLOPE 12.4, PBLUC_R_SQUARED 0.37, read-out: LUCIFERASE INFECTION ASSAY - IC50) is 2.89 µM.
For the compound `C/C(=N\NC(=O)Nc1ccc(Cl)cc1)c1ccc2c(c1)OCCO2`, the concentration for an effect of 90% (IC90) stood at 9.81 µM. For the setting “HEPG2TOX_HILL_SLOPE 11.1, 2.08, HEPG2TOX_R_SQUARED 0.732, 0.913, PBLUC_HILL_SLOPE 3.29, PBLUC_R_SQUARED 0.645, read-out: LUCIFERASE INFECTION ASSAY - IC50”, the concentration for half-maximal inhibition (IC50) turned out to be 5.03 µM.
For the compound `CC(C)(C)CC(C)(C)c1ccc(OCC(O)CNC2CCC(O)CC2)cc1` (stereo not drawn), the concentration for an effect of 90% (IC90) was determined as 7.58 µM. In addition, the IC50 (HEPG2TOX_HILL_SLOPE 10.5, HEPG2TOX_R_SQUARED 0.116, PBLUC_HILL_SLOPE 3.56, PBLUC_R_SQUARED 0.606, read-out: LUCIFERASE INFECTION ASSAY - IC50) amounted to 4.09 µM.
With `CS(=O)(=O)Nc1cccc(-c2cn3c(-c4ccc(Cl)cc4)cnc3cn2)c1`, the 90% effect concentration (IC90) was 1.05 µM. For the same compound, for the setting “HEPG2TOX_HILL_SLOPE 10.9, HEPG2TOX_R_SQUARED 0.801, PBLUC_HILL_SLOPE 12.2, PBLUC_R_SQUARED 0.805, read-out: LUCIFERASE INFECTION ASSAY - IC50”, the IC50 came to 0.873 µM.
Consider `COc1ccc2nc(C(=O)NNC(=O)c3cc(C)oc3C)ccc2c1`, for which the IC90 is more than 10 µM. Also, the IC50 (HEPG2TOX_HILL_SLOPE 10.5, HEPG2TOX_R_SQUARED 0.205, PBLUC_HILL_SLOPE 2.55, PBLUC_R_SQUARED 0.459, read-out: LUCIFERASE INFECTION ASSAY - IC50) turned out to be 6.67 µM.
Consider `O=C(/C=C/c1ccc2ccccc2n1)N1CCCC(c2nc3ccccc3[nH]2)C1` (stereo not drawn), for which the 90% effect concentration (IC90) came to 9.5 µM. Under “HEPG2TOX_HILL_SLOPE 11.0, 10.5, HEPG2TOX_R_SQUARED 0.675, 0.360, PBLUC_HILL_SLOPE 2.71, 0.363, PBLUC_R_SQUARED 0.567, 0.526, read-out: LUCIFERASE INFECTION ASSAY - IC50”, the 50% inhibitory concentration (IC50) is 2.81 µM.
With `CCn1nc(C)c(Sc2nccn2C)c1C`, the IC90 is more than 14 µM. Besides, for the setting “HEPG2TOX_HILL_SLOPE 10.5, HEPG2TOX_R_SQUARED 0.481, PBLUC_HILL_SLOPE 1.71, PBLUC_R_SQUARED 0.393, read-out: LUCIFERASE INFECTION ASSAY - IC50”, the half-maximal inhibitory concentration (IC50) is 4.63 µM.
Turning to `O=C(Nc1cccc(C(F)(F)F)c1)Nc1ccc2nc(Cc3ccccc3)nn2c1`, the 90% effect concentration (IC90) turned out to be 3.8 µM. Besides, the IC50 (HEPG2TOX_HILL_SLOPE 10.6, HEPG2TOX_R_SQUARED 0.963, PBLUC_HILL_SLOPE 15.5, PBLUC_R_SQUARED 0.643, read-out: LUCIFERASE INFECTION ASSAY - IC50) is 3.3 µM.
Consider `CC(C)N(C(=O)NC(=O)Nc1nc(-c2ccccc2)cs1)S(C)(=O)=O`, for which the 90% effect concentration (IC90) is more than 10 µM. For the same compound, under “HEPG2TOX_HILL_SLOPE 10.9, HEPG2TOX_R_SQUARED 0.151, read-out: LUCIFERASE INFECTION ASSAY - IC50”, the concentration for half-maximal inhibition (IC50) was more than 10 µM.
`CCOc1cc(/C=C/C(=O)c2nc3ccccc3s2)cc(Cl)c1OCC(=O)N(C)C`: the concentration for an effect of 90% (IC90) stood at 4.79 µM. Besides, the IC50 (HEPG2TOX_HILL_SLOPE 10.9, HEPG2TOX_R_SQUARED 0.987, PBLUC_HILL_SLOPE 8.99, 3.54, PBLUC_R_SQUARED 0.449, 0.614, read-out: LUCIFERASE INFECTION ASSAY - IC50) turned out to be 4.84 µM.
With `O=C(Nc1ccc(SC(F)(F)F)cc1)N1CCN(c2nc3ccc(Cl)cc3s2)CC1`, the IC90 was more than 6.98 µM. Further, where the note is “HEPG2TOX_HILL_SLOPE 11, HEPG2TOX_R_SQUARED 0.778, PBLUC_HILL_SLOPE 2.23, PBLUC_R_SQUARED 0.377, read-out: LUCIFERASE INFECTION ASSAY - IC50”, the IC50 was 3.77 µM.
As for `CNc1nc2cnc(Nc3cc(C(F)(F)F)ccc3F)cc2n1Cc1ccco1`, the IC90 is more than 10 µM. The half-inhibitory concentration (IC50) (HEPG2TOX_HILL_SLOPE 10.6, HEPG2TOX_R_SQUARED 0.165, read-out: LUCIFERASE INFECTION ASSAY - IC50) is more than 10 µM.
In the case of `N#CCCNS(=O)(=O)c1ccc(C(=O)Nc2ccc(Nc3ccccc3)cc2)cc1`, the IC90 stood at 3.71 µM. The IC50 (HEPG2TOX_HILL_SLOPE 10.9, HEPG2TOX_R_SQUARED 0.158, PBLUC_HILL_SLOPE 11.4, PBLUC_R_SQUARED 0.555, read-out: LUCIFERASE INFECTION ASSAY - IC50) was found to be 3.06 µM.
Consider `CC(C)(C(=O)NNC(=O)c1ccc2ccccc2n1)c1ccccc1`, for which the concentration for an effect of 90% (IC90) is 7.01 µM. For the same compound, the 50% inhibitory concentration (IC50) (HEPG2TOX_HILL_SLOPE 11.1, HEPG2TOX_R_SQUARED 0.756, PBLUC_HILL_SLOPE 1.23E+03, PBLUC_R_SQUARED 0.165, read-out: LUCIFERASE INFECTION ASSAY - IC50) was 7 µM.
`O=S(=O)(NC1CCCCCCC1)c1ccc(S(=O)(=O)C(F)F)cc1`: the IC90 is more than 10 µM. Further, the concentration for half-maximal inhibition (IC50) (HEPG2TOX_HILL_SLOPE 11.1, HEPG2TOX_R_SQUARED 0.22, read-out: LUCIFERASE INFECTION ASSAY - IC50) is more than 10 µM.
Turning to `O=[N+]([O-])c1c(N2CCOCC2)ccc2nsnc12`, the 90% effect concentration (IC90) was more than 12.4 µM. For the same compound, where the note is “HEPG2TOX_HILL_SLOPE 10.9, HEPG2TOX_R_SQUARED 0.296, read-out: LUCIFERASE INFECTION ASSAY - IC50”, the half-inhibitory concentration (IC50) is more than 12.4 µM.
As for `COc1cc(C(=O)Nc2cccc(-c3nc4ccccc4[nH]3)c2)cc(Cl)c1OC`, the IC90 was 8.28 µM. Also, the IC50 (HEPG2TOX_HILL_SLOPE 11, HEPG2TOX_R_SQUARED 0.706, PBLUC_HILL_SLOPE 2.74, PBLUC_R_SQUARED 0.344, read-out: LUCIFERASE INFECTION ASSAY - IC50) worked out at 3.71 µM.
In the case of `Fc1ccc(CNc2ncnc3ccc(Cl)cc23)cc1`, the IC90 turned out to be 9.51 µM. For the same compound, the 50% inhibitory concentration (IC50) (HEPG2TOX_HILL_SLOPE 10.6, HEPG2TOX_R_SQUARED 0.947, PBLUC_HILL_SLOPE 2.4, PBLUC_R_SQUARED 0.787, read-out: LUCIFERASE INFECTION ASSAY - IC50) worked out at 3.81 µM.
On to `COc1cccc(-c2nc(C(=O)Nc3ccc4nc(C(C)(C)C)[nH]c4c3)cs2)c1OC`, for which the IC90 is 9.22 µM. For the same compound, the IC50 (HEPG2TOX_HILL_SLOPE 10.6, HEPG2TOX_R_SQUARED 0.787, PBLUC_HILL_SLOPE 3.59, PBLUC_R_SQUARED 0.651, read-out: LUCIFERASE INFECTION ASSAY - IC50) turned out to be 4.99 µM.
Regarding `Cc1cc2nc(Nc3cccc(Cl)c3)c3ccccc3n2n1`, the concentration for an effect of 90% (IC90) was more than 10 µM. Further, the IC50 (HEPG2TOX_HILL_SLOPE 10.5, HEPG2TOX_R_SQUARED 0.708, PBLUC_HILL_SLOPE 3.62, PBLUC_R_SQUARED 0.793, read-out: LUCIFERASE INFECTION ASSAY - IC50) is 7.73 µM.
For `COc1cc(-c2nc3ccc(NC(=O)Nc4ccc(OC(F)(F)F)cc4)cn3n2)cc(OC)c1OC`, the IC90 turned out to be 4.73 µM. Also, the IC50 (HEPG2TOX_HILL_SLOPE 11.1, HEPG2TOX_R_SQUARED 0.679, PBLUC_HILL_SLOPE 2.84, PBLUC_R_SQUARED 0.644, read-out: LUCIFERASE INFECTION ASSAY - IC50) was found to be 2.18 µM.
In the case of `O=C(/C=C/c1cccc(NC(=O)C(F)(F)F)c1)c1cc2ccccc2o1`, the 90% effect concentration (IC90) was 5.08 µM. In addition, for the setting “HEPG2TOX_HILL_SLOPE 11, HEPG2TOX_R_SQUARED 0.396, PBLUC_HILL_SLOPE 8.92, PBLUC_R_SQUARED 0.395, read-out: LUCIFERASE INFECTION ASSAY - IC50”, the IC50 amounted to 3.97 µM.
Consider `Cc1cc(C(C)(C)C)cc(C)c1CCNC(=O)C1CC1C` (stereo not drawn), for which the IC90 worked out at 9.15 µM. For the setting “HEPG2TOX_HILL_SLOPE 11.1, HEPG2TOX_R_SQUARED 0.0296, PBLUC_HILL_SLOPE 3.7, PBLUC_R_SQUARED 0.553, read-out: LUCIFERASE INFECTION ASSAY - IC50”, the IC50 was 5.05 µM.
Consider `O=C(Nc1ccc(C(F)(F)F)cc1[N+](=O)[O-])c1ccccc1O`, for which the concentration for an effect of 90% (IC90) amounted to 3.69 µM. Where the note is “HEPG2TOX_HILL_SLOPE 10.5, HEPG2TOX_R_SQUARED 0.302, PBLUC_HILL_SLOPE 15.7, PBLUC_R_SQUARED 0.498, read-out: LUCIFERASE INFECTION ASSAY - IC50”, the IC50 turned out to be 3.21 µM.

The values are drawn from ChEMBL document CHEMBL4483862, “Open-source discovery of chemical leads for next-generation chemoprotective antimalarials” (2018).
